Where two headings read alike, the source gives them in different places.

Results on three molecules are retold here after patent publication US20080274057A1, “Staudinger Reaction in Imaging and Therapy and Kits for Use in Imaging and Therapy” (KONINKLIJKE PHILIPS ELECTRONICS, N.V., priority 2005, published 2008).

One experiment concerns A431 cells. The conditions noted are these: for anti-proliferative activity (ranking): 72 hours incubation, ranking among pro-dox, pro-dox plus phosphine, and doxorubicin.
The nature of experiment [1]: Activation of model azido-prodrug 4 by 3-(diphenylphosphino)benzenesulfonate (5), followed with 1H NMR. The protocol:
9) Activation of model azido-prodrug 4-azidobenzyl N-benzyl carbamate (4) by 3-(diphenylphosphino)benzenesulfonate (5) in two different media.
In DMF/H2O (3.5/1): Prodrug 4 (5.3 mg, 18.8 μmol) was dissolved in 952 μl DMF-d7 and 275 μl D2O. Phosphine 5 (12.1 mg, 33.2 μmol) was added and the reaction was followed with ^1H NMR. The reaction had run to completion within 14 hours as judged from the disappearance of the CH2 azidobenzyl signal at 4.83 ppm and the appearance of the CH2 signal of the corresponding aminobenzylalcohol (7) at 4.64 ppm.
In THF/H2O (1/1): Prodrug 4 (4.8 mg, 17.0 μmol) was dissolved in 275 μl THF-d8 and 275 μl D2O. Phosphine 5 (11.3 mg, 31.0 μmol) was added to the slightly yellow solution after which gas development was observed. The reaction was followed with ^1H NMR and had to run to 50% after 7 hours as judged from the disappearance of the CH2 benzyl signal at 4.38 ppm and the appearance of the CH2 signal of the corresponding free benzylamine (6) at 3.99 ppm.

The conditions of experiment [2]: for extent of activation reaction: 10 μM prodrug. The procedure:
11) Activation of the doxorubicin prodrug (9) followed with HPLC and LC-MS
The activation was carried out in the following way: a solution of prodrug in water or growth medium was mixed with a solution of triphenylphosphine-3,3′,3″-trisulfonic acid trisodium salt in water or growth medium. Samples were taken from the reaction mixture (at 37 C) every 2 hours and measured in the HPLC or LCMS. Several different concentrations and ratios prodrug/triphenylphosphine were used. The first activation experiment was done in water with a concentration of 100 μM for the prodrug and 200 μM for the phosphine, and monitored with HPLC.
The second activation was done at a 10-fold lower concentration, 10 μM for the prodrug and 20 μM for the phosphine, and monitored with LCMS.
The third and last activation was done in cell growth medium at 10 μM prodrug. […] During this experiment a fresh portion (60 μM) triphenylphosphine was added to the mixture twice a day.

Experimental for A431 cells: 12) Cell proliferation assay using A431 cells with prodrug 9 (pro-dox) in situ activated by triphenylphosphine.
The in vitro anti-cancer activity of prodrug 9 (pro-dox) was assessed by means of cytotoxicity assays. For these cellular experiments the A431 cell line was used. […] The addition of the prodrug in combination with phosphine should lead to a reduction in proliferation compared to the addition of pro-dox without phosphine, due to the release of doxorubicin by means of the staudinger reaction.
Cells were maintained at 37° C. in DMEM (InVitrogen), supplemented with 10% heat-inactivated fetal bovine serum and 0.05% glutamax (InVitrogen) in the presence of penicillin and streptomycin.
Doxorubicin (Toronto Research Chemicals) and pro-dox (9) were, prior to each experiment, freshly dissolved in DMF at 10 mM and subsequently serial diluted in pre-warmed culture medium. Triphenylphosphine-3,3′,3″-trisulfonic acid trisodium salt (Sigma) was dissolved in PBS at 10 mM and serial diluted in pre-warmed medium. Methylthiazolyldiphenyl-tetrazolium bromide, MTT (Sigma) was used as described by the manufacturer.
Cells were plated out in a 96 well plate (Nunc) at a density of 7500 cells/well, followed by addition of reagents the next day. After 72 hours incubation cell proliferation was assessed by means of a MTT assay. Briefly, MTT was dissolved in pre-warmed medium at 5 mg/ml, passed through a 0.22 μm filter and 50 μl was added to each well. Following an incubation period of 120 minutes the medium was gently aspirated. The formed formazan crystals were dissolved in 100 μl DMSO and the absorbance, or optical density (O.D.), was measured with a plate reader (BMG) at 560 nm. The inhibition of proliferation was determined by reporting the O.D. of the treated group (T) with the O.D. of the appropriate control group (C), and expressed as [(1-T/C)×100%].
Therefore, instead of adding the prodrug to the cell culture together with a single batch triphenylphosphine on day 2, the phosphine was added at fixed intervals from day 2 to day 4. Three phosphine dosing schemes were investigated: 5×10 μM, 5×30 μM, and 5×60 μM. The range of the concentrations used for the doxorubicin drugs was 0-0.01-0.1-0.3-1.0-10 μM.
The above phosphine-dosing scheme was compared to a single batch-dosing scheme at the same total amount of phosphine.

With `COc1cccc2c1C(=O)c1c(O)c3c(c(O)c1C2=O)C[C@@](O)(C(=O)CO)C[C@@H]3O[C@H]1C[C@H](N)[C@H](O)[C@H](C)O1` [Doxorubicin, reference compound], the “anti-proliferative activity (ranking)” value in the experiment on A431 cells (MTT) was “highest activity”. Moreover, the “activity relative to pro-dox” value in the experiment on A431 cells (72 hours, MTT) is 2 orders of magnitude.
For the molecule `[N-]=[N+]=Nc1ccc(COC(=O)NCc2ccccc2)cc1` [prodrug 4, 4-azidobenzyl N-benzyl carbamate], in experiment [1] (DMF/H2O (3.5/1), prodrug 18.8 μmol, phosphine 5 33.2 μmol), the “time until reaction had run to completion” value was no more than 14 h. Besides, the “extent of reaction (release of free benzylamine)” value in experiment [1] (THF/H2O (1/1), after 7 hours, prodrug 17.0 μmol, phosphine 5 31.0 μmol) is 50%.
For “Azidobenzyl carbamate Doxorubicin [prodrug 9]”, the “extent of activation reaction” value in experiment [2] (20 μM phosphine, after 24 hours, LCMS) was “approximately 30%”; in experiment [2] (cell growth medium, fresh 60 μM triphenylphosphine added twice a day, after 8 hours) it was 85%. The “time until reaction was complete” value in experiment [2] (water, 37 C, 100 μM prodrug, 200 μM phosphine, HPLC) was 20 h. In addition, the doxorubicin formed in experiment [2] (water, 37 C, 100 μM prodrug, 200 μM phosphine, after 8 hours, HPLC) is listed as 15%. In addition, in the experiment on A431 cells (MTT), the “anti-proliferative activity (ranking)” value was “lowest anti-proliferative activity”. Besides, the “increase of activity over pro-dox alone” value with A431 cells (72 hours, MTT, pro-dox with 60 μM repetitive dose (5×60 μM) of phosphine) came out at 33 fold. The “activation by a single dose of phosphine compared with sequential additions” value in the experiment on A431 cells (identical total phosphine amounts) is “not nearly as effective”.
